# Entries after “also recorded” stand apart in the source; their conditions may differ.
# Columns and labels:
# [1] = test system: CD4+CD45RBhigh T transfer IBD model; assay: CD4+CD45RBhigh T transfer inflammatory bowel disease (IBD) model in CB17 SCID mice; format: in vivo
# Description: 1. Experimental Protocol for CD4^+CD45RB^high T Transfer Inflammatory Bowel Disease (IBD) Model in CB17 SCID Mice.
# Balb/c mice and CB17 SCID were purchased from Zhejiang Vital River Laboratory Animal Technology Co., Ltd. (Zhejiang, China). Animals were housed and handled in a temperature-controlled environment with a 12-h light/12-h dark cycle. A total of 50 CB17 SCID mice were assigned to 5 groups by randomization based on body weight.
# CD4^+ T cells were isolated from the spleens of Balb/c mice using negative magnetic bead separation kit (Miltenyi Biotec) according to the manufacturers' instructions. The CD4^+CD45RB^high T and CD4^+CD45RB^low T cells were selected by flow cytometry and used for model construction. The isolated CD4^+CD45RB^high T cells were intraperitoneally injected into 40 recipient CB17 SCID mice with 5×10^5 cells per animal. Ten mice in Group 1 (G1) were intraperitoneally injected with 5×10^5 CD4^+CD45RB^low T cells as negative control group.
# 40 recipient CB17 SCID mice injected with CD4^+CD45RB^high T cells were assigned to four groups (n=10 for each group): G2, vehicle control (po, qd, from day 0 to day 42); G3, 30 mg/kg Cpd. 4 (po, qd, from day 0 to day 42); G4, 30 mg/kg Cpd. 4 (po, qd, from day 14 to day 42); G5, 100 mg/kg Cpd. 4 (po, qd, from day 14 to day 42); G6, positive control, anti-mTNF-α 25 mg/kg (ip, Q3D, from day 14 to day 42).
# Clinical signs of IBD were assessed every 3 day based on the scores of disease activity index (DAI) which was evaluated from two parameters using a scoring system from 0 to 4: stool consistency (0, normal stool; 1, soft but still formed stool; 2, soft and not formed stool; 3, very soft and wet stool; 4, watery diarrhea) and body weight loss (0, no body weight loos; 1, 1-5% body weight loss; 2, 6-10% body weight loss; 3, 11-20% body weight loss; 4, >20% body weight loss).
# At the end of experiment, the animals were euthanized, dissected and the entire colon was quickly removed and gently cleared of feces.
# The entire colon was weighed, and the total length was measured. […] Cpd.
# The colons were Swiss-rolled and fixed with neutralized PFA followed by H&E staining. After that, the pathologists from WuXi clinical pathological analysis platform, who were blinded to animal ID, reviewed the H&E staining and scored. […]
# At the end of the study (day 42), all the animals were sacrificed by CO2, and the colon tissues were collected and fixed in 10% formalin for pathological analysis (H&E and LFB staining). The histopathological score was evaluated microscopically in a blinded manner.
# [2] = test system: LPS inhalation induced lung neutrophils infiltration model; assay: LPS inhalation induced neutrophils infiltration model in C57BL/6 mice; format: in vivo; conditions: Cpd. 4 50 mg/kg oral each day, Cpd. X 50 mg/kg iv twice a week, Cpd. XI 12 mg/kg iv twice a week, week 4-10; compared with Vehicle
# Protocol: C57BL/6 mice (6-8 weeks old) were obtained from Shanghai LC Laboratory Animal Co. Ltd. Animals, housed and handled in a temperature-controlled environment with a 12-h light/12-h dark cycle. A total of 60 female C57BL/6J mice will be modeled by atomization inhalation LPS 3 times a week for 10 weeks (adjustments may be made according to animal health status). LPS concentration is at 0.7 mg/mL. On each day of challenge, animals in G1 will receive aerosol inhalation of PBS and intravenous injection of Vehicle; animals in G2 will receive aerosol inhalation of LPS and intravenous injection of Vehicle; animals in G3 will be given aerosol inhalation of LPS and intravenous injection of 50 mg/kg Cpd. X twice a week (D1/4) from week 4-10; animals in G4 will be given aerosol inhalation of LPS and intravenous injection of 12 mg/kg Cpd.XI twice a week (D1/4) from week 4-10; animals in G5 will be given aerosol inhalation of LPS and oral administration of 50 mg/kg Cpd. 4 each day from week 4-10; animals in G6 will be given aerosol inhalation of LPS and oral administration of dexamethasone 1 hour before each challenge. Lungs will be gently lavaged via the tracheal cannula with 0.8 mL of PBS containing 1% BSA and 0.6 mM EDTA 48 hr after the last LPS exposure. The procedure will be repeated twice with 0.8 mL of PBS containing 1% BSA and 0.6 mM EDTA. The bronchoalveolar lavage fluid (BALF) will be centrifuged at 300×g for 5 min at 4° C., the cell pellet will be resuspended in 1.5 mL PBS. Total numbers of neutrophils in BALF will be counted using a hemocytometer.
smiles,measurement,setting,value
"O=C(NS(=O)(=O)c1ccc(NC[C@H]2COCCO2)c([N+](=O)[O-])c1)c1ccc(N2CCN(CC3=C(c4ccc(Cl)cc4)CC4(CCC4)CC3)CC2)cc1Oc1cnc2[nH]ccc2c1 [Cpd. 4, (S)-N-((4-(((1,4-dioxan-2-yl)methyl)amino)-3-nitrophenyl)sulfonyl)-2-((1H-pyrrolo[2,3-b]pyridin-5-yl)oxy)-4-(4-((6-(4-chlorophenyl)spiro[3.5]non-6-en-7-yl)methyl)piperazin-1-yl)benzamide]","disease activity index (DAI), clinical score of IBD","[1]; Cpd. 4 po qd: G3 30 mg/kg day 0-42, G4 30 mg/kg day 14-42, G5 100 mg/kg day 14-42, anti-mTNF-α 25 mg/kg ip Q3D day 14-42, compared with Vehicle",significantly reducing the clinical score; also recorded: significantly reduced
same,"pathological score (colon, H&E)","[1]; day 42, all Cpd. 4 groups, compared with Vehicle",significantly reduced; also recorded: significantly decreased
same,colon weight,"[1]; end of experiment, Cpd. 4 all treatment groups (G3, G4, G5), anti-mTNF-α 25 mg/kg ip Q3D, vehicle 439.1 mg",significantly decreased
same,colon length,"[1]; end of experiment, Cpd. 4 in G3 (30 mg/kg day 0-42) and G5 (100 mg/kg day 14-42), anti-mTNF-α 25 mg/kg ip Q3D, vehicle 7.72 cm",significantly increased
same,BALF neutrophils (infiltration in lung),[2],significantly reducing the BALF neutrophils; also recorded: significantly reduced
